The term IC50 denotes the concentration at which inhibition is half-maximal.

Structures are written as SMILES.

These results are taken from US12668845B2, “Methods for predicting drug responsiveness in cancer patients” (Allarity Therapeutics Europe ApS, priority 2018, dated 2026).

For assay [1], the system named is M14. Description: Growth inhibition of cell lines treated with 2X-121. Format: cell-based. The note with it: Homo sapiens; cell line M14, origin Melanoma; read-out: Measured growth inhibition IC50.
For assay [2], the system named is MDA-MB-231. The assay is described as above. Format: cell-based. The note with it: Homo sapiens; cell line MDA-MB-231, origin Breast; read-out: Measured growth inhibition IC50.
Assay [3] deals with P-glycoprotein expressing cells. The note with it: cited from earlier work.
Assay [4] relates to NCI-H524. Description: Growth inhibition of cell lines treated with 2X-121. It counts as cell-based. The note with it: Homo sapiens; cell line NCI-H524, origin SCLC; read-out: Measured growth inhibition IC50.
Assay [5] relates to HCC1143. The description is as above. Format: cell-based. Particulars: Homo sapiens; cell line HCC1143, origin Breast; read-out: Measured growth inhibition IC50.
For assay [6], the system named is HEC-1A. The assay is described as above. The note with it: Homo sapiens; cell line HEC-1A, origin Endometrial; read-out: Measured growth inhibition IC50. It counts as cell-based.
Assay [7] deals with RL. The description is as above. Format: cell-based. The note with it: Homo sapiens; cell line RL, origin NHL B cell lymphoma; read-out: Measured growth inhibition IC50.
The test system of assay [8] is SNU-423. The assay is described as above. It counts as cell-based. The note with it: Homo sapiens; cell line SNU-423, origin HCC; read-out: Measured growth inhibition IC50.
In assay [9] the test system is MDA-MB-453. Described as above. It counts as cell-based. The note with it: Homo sapiens; cell line MDA-MB-453, origin Breast; read-out: Measured growth inhibition IC50.
The test system of assay [10] is RL95-2. The assay is described as above. It counts as cell-based. The note with it: Homo sapiens; cell line RL95-2, origin Endometrial; read-out: Measured growth inhibition IC50.
The subject of assay [11] is MDA-MB-436. The assay is described as above. Format: cell-based. The note with it: Homo sapiens; cell line MDA-MB-436, origin Breast; read-out: Measured growth inhibition IC50.
The subject of assay [12] is NCI-H82. The description is as above. It counts as cell-based. The note with it: Homo sapiens; cell line NCI-H82, origin SCLC; read-out: Measured growth inhibition IC50.
Assay [13] concerns HEC-88nu. The description is as above. It counts as cell-based. Particulars: cell line HEC-88nu, origin Endometrial; read-out: Measured growth inhibition IC50.
In assay [14] the test system is HEC-1. The assay is described as above. Format: cell-based. Particulars: Homo sapiens; cell line HEC-1, origin Endometrial; read-out: Measured growth inhibition IC50.
For assay [15], the system named is K562. The description is as above. Format: cell-based. The note with it: Homo sapiens; cell line K562, origin Erythroleukemia from CML Pt; read-out: Measured growth inhibition IC50.
In assay [16] the test system is HEC-1B. Described as above. It counts as cell-based. Particulars: Homo sapiens; cell line HEC-1B, origin Endometrial; read-out: Measured growth inhibition IC50.
The test system of assay [17] is MDA-MB-468. Described as above. Format: cell-based. Particulars: Homo sapiens; cell line MDA-MB-468, origin Breast; read-out: Measured growth inhibition IC50.
Assay [18] concerns HCC1806. The assay is described as above. It counts as cell-based. The note with it: Homo sapiens; cell line HCC1806, origin Breast; read-out: Measured growth inhibition IC50.

Consider `O=c1[nH]nc2c3c(cccc13)N=C(CN1Cc3ccccc3C1)N2` [2X-121, 8-(isoindolin-2-ylmethyl)-2,9-dihydro-3H-pyridazino[3,4,5-de]quinazolin-3-one], for which the IC50 in assay [1] was 6700 nM; in assay [2], 25000 nM; in assay [4] it was 690 nM; in assay [5], 3700 nM; in [6], 2960 nM; in assay [7] it was 2500 nM. Besides, the IC50 in assay [8] worked out at 19000 nM; in assay [9], 6200 nM; in assay [10], 2130 nM; in assay [11], 190 nM; in assay [12], 470 nM; in [13], 1140 nM. Moreover, the IC50 in assay [14] is 1280 nM; in [15], 4300 nM; in [16], 7270 nM; in assay [17], 2500 nM; in assay [18], 1800 nM. In assay [3], the “activity in P-glycoprotein expressing cells” value is given as “active”.
